Results on 5 compounds are retold here after US12435031B2, “Compound with broad-spectrum antibacterial activity and its antibacterial composition” (CHINA AGRICULTURAL UNIVERSITY, priority 2023, dated 2025).

The test system of assay [1] is Aspergillus niger ATCC 96918. As to the kind of experiment: MIC against pathogenic fungi, Aspergillus niger. The assay is classed as cell-based. Particulars: Aspergillus niger ATCC 96918.
Assay [2] in a line: MIC against pathogenic fungi, Candida ATCC 6258. The assay is classed as cell-based. Particulars: Candida albicans ATCC 6258 (Candida krusei ATCC 6258).
Assay [3] concerns Aspergillus flavus ATCC 11492. Nature of the assay: MIC against pathogenic fungi, Aspergillus flavus. The format is cell-based.
Assay [4] concerns Trichophyton ATCC MTA-4439. As to the kind of experiment: MIC against pathogenic fungi, Trichophyton. The format is cell-based. As to conditions: Trichophyton ATCC MTA-4439.
Assay [5] relates to Clostridium perfringens. As to the kind of experiment: microbe, parasite or virus in culture. The assay is classed as cell-based.
Assay [6] deals with Staphylococcus. Nature of the assay: microbe, parasite or virus in culture. The format is cell-based. As to conditions: Staphylococcus, read-out: MICs.
In assay [7] the test system is MRSA T144. Particulars: Galleria mellonella infected with MRSA T144, 2 mg/kg b.w. 1 hour after infection, within 5 days.
Assay [8] relates to Clostridium perfringens. As to the kind of experiment: microbe, parasite or virus in culture. The format is cell-based. Particulars: read-out: MICs.
Assay [9] deals with Streptococcus. Nature of the assay: microbe, parasite or virus in culture. The format is cell-based. Particulars: read-out: MICs.
Assay [10] concerns Bacillus. Nature of the assay: microbe, parasite or virus in culture. Particulars: read-out: MICs. The format is cell-based.
Assay [11] has as its system Mycobacterium smegmatis. Nature of the assay: microbe, parasite or virus in culture. The format is cell-based. As to conditions: Mycolicibacterium smegmatis, read-out: MICs.
Assay [12] deals with Enterococcus. As to the kind of experiment: microbe, parasite or virus in culture. Particulars: read-out: MICs. The assay is classed as cell-based.

Converted amounts (≈) assume the structure as drawn. Like-named read-outs stand apart in the source and are kept apart here.

With `C[C@@H]1[C@H](O)[C@@H](C)/C=C/C=C/C=C/C=C/C=C/C=C/C=C/[C@H](O[C@@H]2O[C@H](C)[C@@H](O)[C@H](N)[C@@H]2O)C[C@@H]2O[C@](O)(C[C@@H](O)C[C@@H](O)[C@H](O)CC[C@@H](O)C[C@@H](O)CC(=O)O[C@H]1C)C[C@H](O)[C@H]2C(=O)O` [Amphotericin B], the MICs in assay [1] was 0.125 µg/mL; in assay [2] it was 0.5 µg/mL; in assay [3], 0.25 µg/mL; in assay [4], 0.25 µg/mL.
In [5] (Clostridium perfringens), `CC[C@H]1OC(=O)C[C@@H](O)[C@H](C)[C@@H](O[C@@H]2O[C@H](C)[C@@H](O)[C@H](N(C)C)[C@H]2O)[C@@H](CCN2C[C@H](C)C[C@H](C)C2)C[C@@H](C)C(=O)/C=C/C(C)=C/[C@@H]1CO[C@@H]1O[C@H](C)[C@@H](O)[C@@H](OC)[C@H]1OC` [TMS, Tilmicosin] returned an MIC50 of 128 µg/mL (≈ 147 µM). Moreover, the MIC90 in assay [5] (Clostridium perfringens) is > 128 µg/mL. Besides, the MIC is 4 µg/mL (≈ 4.6 µM) in [5] (Clostridium perfringens, read-out: MIC value against Clostridium perfringens, strain A3-1 (A-type)); 2 µg/mL (≈ 2.3 µM) in assay [5] (Clostridium perfringens, read-out: MIC value against Clostridium perfringens, strain A3-2 (A-type)); 4 µg/mL (≈ 4.6 µM) in [5] (Clostridium perfringens, read-out: MIC value against Clostridium perfringens, strain A57-1 (A-type)); > 128 µg/mL in assay [5] (Clostridium perfringens, read-out: MIC value against Clostridium perfringens, strain B4 (B-type)); > 128 µg/mL in assay [5] (Clostridium perfringens, read-out: MIC value against Clostridium perfringens, strain B5 (B-type)); > 128 µg/mL in assay [5] (Clostridium perfringens, read-out: MIC value against Clostridium perfringens, strain C3 (C-type)). Also, the MIC in assay [5] (Clostridium perfringens, read-out: MIC value against Clostridium perfringens, strain C8 (C-type)) is > 128 µg/mL; in assay [5] (Clostridium perfringens, read-out: MIC value against Clostridium perfringens, strain C59-1 (C-type)) it was 2 µg/mL (≈ 2.3 µM); in assay [5] (Clostridium perfringens, read-out: MIC value against Clostridium perfringens, strain D14B (D-type)), 128 µg/mL (≈ 147 µM); in assay [5] (Clostridium perfringens, read-out: MIC value against Clostridium perfringens, strain F5-2 (F-type)), 128 µg/mL (≈ 147 µM); in assay [5] (Clostridium perfringens, read-out: MIC value against Clostridium perfringens, strain F6-1 (F-type)), 128 µg/mL (≈ 147 µM); in assay [5] (Clostridium perfringens, read-out: MIC value against Clostridium perfringens, strain F6-2 (F-type)), 128 µg/mL (≈ 147 µM). Moreover, the MIC in [5] (Clostridium perfringens, read-out: MIC value against Clostridium perfringens, strain F6-2-1 (F-type)) was > 128 µg/mL; in assay [5] (Clostridium perfringens, read-out: MIC value against Clostridium perfringens, strain F6-2-2 (F-type)), 128 µg/mL (≈ 147 µM); in [5] (Clostridium perfringens, read-out: MIC value against Clostridium perfringens, strain F7-1 (F-type)) it was 64 µg/mL (≈ 73.6 µM); in [5] (Clostridium perfringens, read-out: MIC value against Clostridium perfringens, strain F8-1 (F-type)), 128 µg/mL (≈ 147 µM); in assay [5] (Clostridium perfringens, read-out: MIC value against Clostridium perfringens, strain H12-1 (H-type)), 4 µg/mL (≈ 4.6 µM); in assay [5] (Clostridium perfringens, read-out: MIC value against Clostridium perfringens, strain H12-2 (H-type)), 4 µg/mL (≈ 4.6 µM). In addition, the MIC amounted to 4 µg/mL (≈ 4.6 µM) in [5] (Clostridium perfringens, read-out: MIC value against Clostridium perfringens, strain H13-1 (H-type)); 128 µg/mL (≈ 147 µM) in assay [5] (Clostridium perfringens, read-out: MIC value against Clostridium perfringens, strain H14-1 (H-type)); 128 µg/mL (≈ 147 µM) in [5] (Clostridium perfringens, read-out: MIC value against Clostridium perfringens, strain H14-2 (H-type)); 128 µg/mL (≈ 147 µM) in assay [5] (Clostridium perfringens, read-out: MIC value against Clostridium perfringens, strain H14-4 (H-type)); 4 µg/mL (≈ 4.6 µM) in assay [5] (Clostridium perfringens, read-out: MIC value against Clostridium perfringens, strain H15-1 (H-type)); 128 µg/mL (≈ 147 µM) in [5] (Clostridium perfringens, read-out: MIC value against Clostridium perfringens, strain H15-2 (H-type)). Besides, the MIC was 4 µg/mL (≈ 4.6 µM) in assay [5] (Clostridium perfringens, read-out: MIC value against Clostridium perfringens, strain H15-3 (H-type)) and 128 µg/mL (≈ 147 µM) in assay [5] (Clostridium perfringens, read-out: MIC value against Clostridium perfringens, strain H16 (H-type)).
Consider `CN[C@H](CC(C)C)C(=O)N[C@H]1C(=O)N[C@@H](CC(N)=O)C(=O)N[C@H]2C(=O)N[C@H]3C(=O)N[C@H](C(=O)N[C@H](C(=O)O)c4cc(O)cc(O)c4-c4cc3ccc4O)[C@H](O)c3ccc(c(Cl)c3)Oc3cc2cc(c3O[C@@H]2O[C@H](CO)[C@@H](O)[C@H](O)[C@H]2O[C@H]2C[C@](C)(N)[C@H](O)[C@H](C)O2)Oc2ccc(cc2Cl)[C@H]1O` [VAN, Vancomycin], for which the MIC in assay [6] was 1 µg/mL (≈ 0.69 µM); in [8] it was 0.5 µg/mL (≈ 0.345 µM); in assay [9], 0.25 µg/mL (≈ 0.173 µM); in [5] (Clostridium perfringens, read-out: MIC value against Clostridium perfringens), ≤ 0.25 µg/mL; in assay [10], 0.5 µg/mL (≈ 0.345 µM); in [11], 16 µg/mL (≈ 11 µM). This compound also gave a protective rate in assay [7] of 40%.
On to `CC(=O)NC[C@H]1CN(c2ccc(N3CCOCC3)c(F)c2)C(=O)O1` [linezolid], for which the MIC in assay [12] is 1 µg/mL (≈ 2.96 µM).
Take Penicillin: the “MIC value against Clostridium perfringens” value (from here on “MIC value”) is 0.25 µg/mL in [5] (strain A3-1 (A-type)); 0.5 µg/mL in assay [5] (strain A3-2 (A-type)); 0.25 µg/mL in assay [5] (strain A57-1 (A-type)); 0.5 µg/mL in assay [5] (strain B4 (B-type)); 0.5 µg/mL in assay [5] (strain B5 (B-type)); 2 µg/mL in assay [5] (strain C3 (C-type)). Also, the “MIC value” value came out at 0.25 µg/mL in assay [5] (strain C8 (C-type)); 0.125 µg/mL in assay [5] (strain C59-1 (C-type)); 0.5 µg/mL in assay [5] (strain D14B (D-type)); 0.125 µg/mL in assay [5] (strain F5-2 (F-type)); 0.25 µg/mL in assay [5] (strain F6-1 (F-type)); 0.125 µg/mL in [5] (strain F6-2 (F-type)). For the same compound, the “MIC value” value in [5] (strain F6-2-1 (F-type)) is 0.25 µg/mL; in assay [5] (strain F6-2-2 (F-type)) it was 0.25 µg/mL; in assay [5] (strain F7-1 (F-type)), 0.5 µg/mL; in [5] (strain F8-1 (F-type)), 0.25 µg/mL; in assay [5] (strain H12-1 (H-type)), 0.25 µg/mL; in assay [5] (strain H12-2 (H-type)), 0.125 µg/mL. Also, the “MIC value” value turned out to be 0.0625 µg/mL in assay [5] (strain H13-1 (H-type)); 0.25 µg/mL in assay [5] (strain H14-1 (H-type)); 1 µg/mL in [5] (strain H14-2 (H-type)); 0.125 µg/mL in [5] (strain H14-4 (H-type)); 0.25 µg/mL in [5] (strain H15-1 (H-type)); 0.25 µg/mL in assay [5] (strain H15-2 (H-type)). Also, the figures for the “MIC value” value in assay [5] (strain H15-3 (H-type)) and in assay [5] (strain H16 (H-type)) were 0.25 µg/mL and 0.125 µg/mL, respectively.
